Assay results from patent US20230364118A1, “RIBITOL TREATMENT” (priority 2020, published 2023).
Entries after “also recorded” stand apart in the source; their conditions may differ.

Test system: HPBLs
Assay: In vitro micronucleus assay
Format: cell-based, human
Experimental: In this GLP-compliant study, ribitol was tested to evaluate the potential to induce micronuclei in HPBLs in both the absence and presence of S9. HPBL cells were treated for 4 hours in the absence and presence of S9, and for 24 hours in the absence of S9. Purified water was used as the vehicle. In the preliminary toxicity assay, the doses tested ranged from 0.0152 to 152 μg/mL (1 mM), which was the limit dose for this assay.

OC[C@@H](O)[C@@H](O)[C@@H](O)CO [ribitol, (2R,3s,4S)-Pentane-1,2,3,4,5-pentol]
cytotoxicity (0.0152 to 152 μg/mL, with and without S9): Cytotoxicity was not observed | induction of micronuclei (19 to 152 μg/mL, presence and absence of S9): negative; also recorded: devoid of genotoxicity potential
